ChEMBL document CHEMBL1201862, “PubChem BioAssay data set” (2004)
Several values for one entry are separate records, joined by “and”; a condition that tells them apart may be missing. Equal entries are not always repeated. Activity calls are given as the source filed them.

Key:
[1] = CEM21 cell cytotoxicity, dose response, cytotoxicity control, plate reader, dry powder (AID 687026); type: functional, cell-based
[2] = HIV Env cell-cell fusion inhibitors, dose response, HIV entry, plate reader, dry powder (AID 687023); type: functional, cell-based
[3] = A549 cell cytotoxicity, dose response, cytotoxicity control, cherry-picks, 26 µM top dose (AID 1053119); type: functional, cell-based
[4] = HepG2 cell cytotoxicity, dose response, cytotoxicity control, cherry-picks, set 5 (AID 1053118); type: functional, cell-based
[5] = HEK293 cell cytotoxicity, dose response, cytotoxicity control, cherry-picks, set 5 (AID 1053117); type: functional, cell-based
[6] = HepG2 cell cytotoxicity, dose response, cytotoxicity control, plate reader, cherry-pick, antagonist series (AID 743416); type: functional, cell-based
[7] = A549 cell cytotoxicity, dose response, cytotoxicity control, plate reader, cherry-pick, antagonist series (AID 743412); type: functional, cell-based
[8] = inhibitors of fibronectin matrix deposition, dose response, AH1F cells, Alexa488-FN fluorescence, cherry-picks (AID 1035475); type: functional, cell-based
[9] = LGR2 antagonists, dose response, cell-based, HEK293, CRE-luciferase reporter, cherry pick, set 2 (AID 743343); type: functional;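 also: transfected cells were stimulated with diluted bursicon conditioned medium after compound addition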
[10] = HEK293 cell cytotoxicity, dose response, cytotoxicity control, plate reader, cherry-picked samples (AID 743446); type: functional, cell-based
[11] = MC4R antagonists, dose response, counter-screen for LGR2 antagonist project, cell-based, plate reader, cherry pick (AID 743444); type: functional;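 also: transfected HEK 293 cells stimulated with alpha-MSH peptide; potency of inhibitors of the alpha-MSH evoked signal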
[12] = target: T1, Nucleotide-binding oligomerization domain-containing protein 1 (Homo sapiens, UniProt Q9Y239); assay: NOD1 signaling inhibitors, SAR follow-up, revised (AID 2333); type: functional
T1 sequence (Q9Y239 whole entry): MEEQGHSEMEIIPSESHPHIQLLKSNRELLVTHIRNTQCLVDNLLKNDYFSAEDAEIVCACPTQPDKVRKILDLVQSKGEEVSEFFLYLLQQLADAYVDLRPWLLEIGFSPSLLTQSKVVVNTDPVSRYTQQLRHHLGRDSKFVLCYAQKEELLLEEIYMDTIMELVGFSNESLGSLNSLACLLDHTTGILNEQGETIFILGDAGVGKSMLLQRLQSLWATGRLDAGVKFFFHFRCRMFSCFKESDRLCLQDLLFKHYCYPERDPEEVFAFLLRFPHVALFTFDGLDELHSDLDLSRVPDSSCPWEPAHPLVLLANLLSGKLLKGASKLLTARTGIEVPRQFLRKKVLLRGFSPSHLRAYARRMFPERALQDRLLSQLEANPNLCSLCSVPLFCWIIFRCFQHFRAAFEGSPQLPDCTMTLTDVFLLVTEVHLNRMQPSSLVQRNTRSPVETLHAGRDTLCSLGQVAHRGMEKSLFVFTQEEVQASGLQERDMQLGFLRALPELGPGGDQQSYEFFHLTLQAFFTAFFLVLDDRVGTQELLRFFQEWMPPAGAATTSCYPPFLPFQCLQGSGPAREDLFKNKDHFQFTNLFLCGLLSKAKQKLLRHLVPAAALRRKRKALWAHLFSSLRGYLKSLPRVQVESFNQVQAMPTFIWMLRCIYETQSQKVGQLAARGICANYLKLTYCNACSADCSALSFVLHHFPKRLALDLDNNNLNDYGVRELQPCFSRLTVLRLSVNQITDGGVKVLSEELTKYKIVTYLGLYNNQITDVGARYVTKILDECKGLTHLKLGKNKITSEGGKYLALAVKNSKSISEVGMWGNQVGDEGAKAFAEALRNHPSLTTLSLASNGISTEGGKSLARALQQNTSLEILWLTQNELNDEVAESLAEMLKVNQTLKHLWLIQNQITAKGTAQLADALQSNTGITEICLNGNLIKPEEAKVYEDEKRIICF

[13] = tested on: HEK293; assay: cells; type: functional, cell-based; conditions: Homo sapiens
[14] = control 3'UTR Renilla luciferase suppression, dose response, counter-screen for Shn3 inhibitor project, cell-based, Clone20-Shn3RL, cherry-picked (AID 624133); type: functional
[15] = Shn3 3'UTR reporter inhibitors, dose response, cell-based, Clone20 osteoblasts, firefly luciferase, cherry-picked (AID 624132); type: functional;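 also: firefly luciferase luminescence from reporter carrying the Shn3 3'UTR in osteoblasts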
[16] = tested on: HEK293; assay: NOD2 signaling inhibitors in MDP-stimulated cells, cell-based, uHTS, luminescence (AID 2001); type: functional; conditions: Homo sapiens
[17] = tested on: HEK293; assay: cells; conditions: Homo sapiens
[18] = tested on: HEK293; assay: cells; type: functional, cell-based; conditions: Homo sapiens; remark: listed apart in the source
[19] = reduction of Shn3 3'UTR firefly luciferase signal, dose response, Schnurri-3 inhibitor project, cell-based, Clone20 osteoblasts, cherry-pick, set 2 (AID 720490); type: functional;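 also: actives lower the luminescence signal as inhibitors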
[20] = target: Tumor necrosis factor (Homo sapiens, UniProt P01375); assay: TNFa-triggered NF-kB activation inhibitors, SAR follow-up, cell-based, revised (AID 2337); type: functional
Tumor necrosis factor, sequence (P01375 whole entry): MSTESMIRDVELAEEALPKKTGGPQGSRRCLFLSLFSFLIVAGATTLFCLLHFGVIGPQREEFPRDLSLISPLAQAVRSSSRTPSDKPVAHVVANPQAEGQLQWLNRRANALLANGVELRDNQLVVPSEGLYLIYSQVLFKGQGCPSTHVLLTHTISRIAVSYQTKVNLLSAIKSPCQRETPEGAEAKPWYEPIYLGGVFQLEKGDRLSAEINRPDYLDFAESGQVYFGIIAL

[21] = tested on: HEK293; assay: NOD1 signaling inhibitors, primary screen, cell-based, luminescence, uHTS (AID 1578); type: functional; conditions: Homo sapiens
[22] = HepG2 cell cytotoxicity, dose response, cytotoxicity control for Shn3 inhibitor project, CellTiter-Glo, cherry-picked (AID 624134); type: functional, cell-based
[23] = target: G-protein coupled receptor 183 (Homo sapiens, UniProt P32249); assay: SAR confirmation of small molecule antagonists of the EBI2 receptor via a luminescent beta-arrestin assa.; type: functional
G-protein coupled receptor 183, sequence (P32249 whole entry, the tested form may be a part): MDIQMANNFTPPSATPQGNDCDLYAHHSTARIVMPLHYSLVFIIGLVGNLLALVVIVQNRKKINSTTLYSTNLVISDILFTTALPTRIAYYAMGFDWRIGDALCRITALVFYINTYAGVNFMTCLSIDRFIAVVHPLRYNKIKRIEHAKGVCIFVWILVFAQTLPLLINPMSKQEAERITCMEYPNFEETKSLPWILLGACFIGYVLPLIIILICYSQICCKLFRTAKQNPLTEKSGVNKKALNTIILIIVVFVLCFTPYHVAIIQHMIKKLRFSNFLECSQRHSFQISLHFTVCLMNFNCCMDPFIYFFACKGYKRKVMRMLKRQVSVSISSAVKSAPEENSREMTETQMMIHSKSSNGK

[24] = target: E3 ubiquitin-protein ligase UHRF1 (Homo sapiens, UniProt Q96T88); assay: Counterscreen for inhibitors of 5-meCpG-binding domain protein 2 (MBD2): TRFRET-based biochemical high throughput dose response assay to identify inhibitors of binding of ubiquitin-like with PHD and ring finger domains 1 (UHRF1) to methylated oligonucleotide.
E3 ubiquitin-protein ligase UHRF1, sequence (Q96T88 whole entry, the tested form may be a part): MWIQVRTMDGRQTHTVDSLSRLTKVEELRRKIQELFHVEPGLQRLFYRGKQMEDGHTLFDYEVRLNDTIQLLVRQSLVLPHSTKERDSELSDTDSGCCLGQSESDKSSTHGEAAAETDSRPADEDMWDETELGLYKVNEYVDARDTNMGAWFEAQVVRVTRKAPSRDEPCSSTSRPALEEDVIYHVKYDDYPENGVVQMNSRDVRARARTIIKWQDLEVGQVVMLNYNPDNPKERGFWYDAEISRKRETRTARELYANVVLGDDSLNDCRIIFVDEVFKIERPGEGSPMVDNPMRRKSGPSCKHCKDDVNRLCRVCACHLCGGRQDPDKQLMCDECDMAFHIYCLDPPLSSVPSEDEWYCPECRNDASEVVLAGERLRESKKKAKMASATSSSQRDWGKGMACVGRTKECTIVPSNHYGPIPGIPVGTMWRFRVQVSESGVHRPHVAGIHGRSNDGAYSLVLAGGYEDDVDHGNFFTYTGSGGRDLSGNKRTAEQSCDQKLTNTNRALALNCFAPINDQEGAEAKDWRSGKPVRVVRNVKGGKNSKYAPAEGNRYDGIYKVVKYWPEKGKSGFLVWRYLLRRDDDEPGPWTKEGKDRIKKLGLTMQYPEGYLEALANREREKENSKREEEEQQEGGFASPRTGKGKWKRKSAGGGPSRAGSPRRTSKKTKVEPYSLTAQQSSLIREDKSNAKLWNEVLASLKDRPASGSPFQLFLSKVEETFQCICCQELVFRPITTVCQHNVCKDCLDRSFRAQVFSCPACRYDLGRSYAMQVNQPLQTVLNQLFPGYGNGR

[25] = cells
[26] = cells; conditions: HEK293
[27] = A549 cell cytotoxicity, dose response, cytotoxicity control, plate reader, dry powder, set 6 (AID 743312); type: functional, cell-based
[28] = HCT116 cell viability decrease, GSK3B pretreatment – CellTiter-Glo, IC50, dose response (AID 1117339); type: functional; conditions: HCT-116
[29] = CellTiter-Glo luminescent dose response of DLD-1 viability loss (AID 1117352); type: functional
[30] = cytotoxicity toward HCT116 cells – cell-based, CellTiter-Glo luminescence, IC50, dose response (AID 1117332); type: functional; conditions: HCT-116
[31] = HeLa 4N DNA content increase, dose response, cell-based, IC50 (AID 1117351); type: functional
[32] = SNU-C1 cell viability reduction, dose response, CellTiter-Glo luminescence (AID 1117323); type: functional, cell-based
[33] = RKO cell viability reduction, dose response, CellTiter-Glo luminescence (AID 1117322); type: functional
[34] = cytotoxicity toward HT-29 cells – cell-based, CellTiter-Glo luminescence, IC50, dose response (AID 1117330); type: functional
[35] = HeLa 2N DNA content increase, dose response, cell-based, IC50 (AID 1117349); type: functional
[36] = Concentration-dependent survival of SW480 colon cancer line, luminescence detection with CellTiter-Glo, half-maximal inhibitory concentration (AID 1117338); type: functional
[37] = cytotoxicity toward Colo320 cells – cell-based, CellTiter-Glo luminescence, IC50, dose response (AID 1117334); type: functional; conditions: COLO 320
[38] = target: T2, Fatty acid synthase (Homo sapiens, UniProt P49327); assay: FAS thioesterase domain inhibitors, dose response, biochemical, kinetic fluorescence intensity (AID 624326); type: functional;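 also: rate of fluorescence rise from hydrolysis of a fluorogenic O-methyl fluorescein ester substrate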
T2 sequence (P49327 whole entry, the tested form may be a part): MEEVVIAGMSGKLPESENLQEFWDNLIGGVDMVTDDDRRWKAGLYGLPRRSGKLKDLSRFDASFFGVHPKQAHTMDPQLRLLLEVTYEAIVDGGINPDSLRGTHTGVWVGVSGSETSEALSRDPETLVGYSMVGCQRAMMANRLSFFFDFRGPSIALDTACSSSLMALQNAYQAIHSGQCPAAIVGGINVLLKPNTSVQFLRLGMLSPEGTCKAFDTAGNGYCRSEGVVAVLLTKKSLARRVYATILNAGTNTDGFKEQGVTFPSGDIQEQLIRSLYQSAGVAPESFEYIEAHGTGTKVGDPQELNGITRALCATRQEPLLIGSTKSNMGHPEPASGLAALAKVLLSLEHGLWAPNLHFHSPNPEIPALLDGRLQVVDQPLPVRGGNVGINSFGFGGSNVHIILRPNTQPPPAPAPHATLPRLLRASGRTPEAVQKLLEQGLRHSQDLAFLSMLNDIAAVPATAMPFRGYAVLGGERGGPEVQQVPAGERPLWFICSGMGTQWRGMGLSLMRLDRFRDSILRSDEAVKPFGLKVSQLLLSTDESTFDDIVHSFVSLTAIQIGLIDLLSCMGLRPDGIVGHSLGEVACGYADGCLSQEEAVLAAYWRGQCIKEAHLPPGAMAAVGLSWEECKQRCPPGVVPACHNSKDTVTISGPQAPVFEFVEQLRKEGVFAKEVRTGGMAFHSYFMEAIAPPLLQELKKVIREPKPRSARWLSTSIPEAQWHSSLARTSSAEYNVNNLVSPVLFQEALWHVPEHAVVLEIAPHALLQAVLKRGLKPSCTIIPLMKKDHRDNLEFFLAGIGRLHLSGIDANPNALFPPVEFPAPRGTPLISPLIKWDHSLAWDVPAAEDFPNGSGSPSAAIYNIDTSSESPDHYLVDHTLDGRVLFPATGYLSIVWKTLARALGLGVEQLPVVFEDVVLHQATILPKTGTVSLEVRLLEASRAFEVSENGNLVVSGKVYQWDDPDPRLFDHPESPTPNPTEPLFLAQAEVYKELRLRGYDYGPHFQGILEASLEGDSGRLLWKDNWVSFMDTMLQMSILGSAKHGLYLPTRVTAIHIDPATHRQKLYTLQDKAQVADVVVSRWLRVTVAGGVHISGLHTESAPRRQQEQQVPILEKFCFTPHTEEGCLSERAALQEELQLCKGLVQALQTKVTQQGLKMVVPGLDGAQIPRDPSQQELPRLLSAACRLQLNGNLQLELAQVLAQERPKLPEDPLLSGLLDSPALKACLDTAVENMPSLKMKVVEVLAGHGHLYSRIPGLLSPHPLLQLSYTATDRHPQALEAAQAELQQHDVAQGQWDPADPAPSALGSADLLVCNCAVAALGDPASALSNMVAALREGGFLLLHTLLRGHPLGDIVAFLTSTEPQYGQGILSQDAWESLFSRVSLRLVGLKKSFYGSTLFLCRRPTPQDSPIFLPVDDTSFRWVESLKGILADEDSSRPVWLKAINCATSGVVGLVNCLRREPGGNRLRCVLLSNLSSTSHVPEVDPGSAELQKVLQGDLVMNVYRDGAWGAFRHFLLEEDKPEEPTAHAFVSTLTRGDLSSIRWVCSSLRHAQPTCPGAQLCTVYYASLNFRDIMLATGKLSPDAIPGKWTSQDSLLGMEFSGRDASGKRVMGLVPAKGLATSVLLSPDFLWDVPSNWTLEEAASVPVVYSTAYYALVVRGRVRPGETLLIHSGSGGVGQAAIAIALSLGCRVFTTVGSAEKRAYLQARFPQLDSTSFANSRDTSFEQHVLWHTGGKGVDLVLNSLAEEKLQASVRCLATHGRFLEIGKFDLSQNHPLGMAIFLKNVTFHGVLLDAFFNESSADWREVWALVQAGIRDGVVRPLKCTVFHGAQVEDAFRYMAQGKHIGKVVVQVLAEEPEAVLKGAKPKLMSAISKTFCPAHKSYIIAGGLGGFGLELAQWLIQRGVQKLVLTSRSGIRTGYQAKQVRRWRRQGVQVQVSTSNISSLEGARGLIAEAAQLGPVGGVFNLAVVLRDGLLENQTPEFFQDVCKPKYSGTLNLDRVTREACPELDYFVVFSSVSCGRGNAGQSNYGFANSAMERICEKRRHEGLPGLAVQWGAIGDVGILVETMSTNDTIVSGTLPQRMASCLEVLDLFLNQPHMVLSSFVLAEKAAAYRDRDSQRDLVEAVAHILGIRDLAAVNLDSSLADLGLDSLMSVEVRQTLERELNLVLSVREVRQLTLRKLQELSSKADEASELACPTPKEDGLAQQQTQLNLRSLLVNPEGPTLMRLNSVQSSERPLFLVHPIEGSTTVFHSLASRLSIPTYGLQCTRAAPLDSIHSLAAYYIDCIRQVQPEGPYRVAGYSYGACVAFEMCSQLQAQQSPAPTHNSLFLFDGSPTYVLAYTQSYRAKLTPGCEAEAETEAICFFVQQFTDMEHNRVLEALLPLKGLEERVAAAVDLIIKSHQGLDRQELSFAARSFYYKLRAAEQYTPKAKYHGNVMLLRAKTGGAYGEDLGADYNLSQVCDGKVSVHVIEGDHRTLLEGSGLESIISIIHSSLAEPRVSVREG

[39] = target: T2, Fatty acid synthase; assay: FAS thioesterase domain inhibitors, dose response, biochemical, endpoint fluorescence intensity, uHTS hits (AID 624327); type: functional;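 also: fluorescence from hydrolysis of an O-methyl fluorescein acyl ester substrate by the enzyme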
[40] = target: T2, Fatty acid synthase; assay: FAS thioesterase domain inhibitors, SAR follow-up, biochemical, endpoint fluorescence intensity, powder samples (AID 652164); type: functional

## CCOc1ccc(S(=O)(=O)NCc2ccncc2)cc1Cl
[1]
  AC50: > 70 µM (inactive)
[2]
  AC50: 92.5 nM (active) and 125 nM (active)

## C[C@@H]1CN([C@H](C)CO)C(=O)c2cccc(NC(=O)Nc3ccc(C(F)(F)F)cc3)c2O[C@@H]1CN(C)C(=O)Nc1cccc2ccccc12
[3]
  AC50: 24.3 µM (active)
[4]
  AC50: 32.5 µM (active)
[5]
  AC50: 29.2 µM (active)
[6]
  AC50: 19.6 µM (active)
[7]
  AC50: 16.4 µM (active)
[8]
  AC50: 7.47 µM (active)
[9]
  AC50: 19.4 µM (active)
[10]
  AC50: 14.8 µM (active)
[11]
  AC50: 14.3 µM (active)

## CC1Cc2cc(S(=O)(=O)N3CCN(c4ccc(Cl)cc4)CC3)ccc2N1C(=O)C1CC1 (stereo not given)
[12]
  IC50: 5.6 µM (active)
[13]
  IC50: > 20 µM (inactive)
[14]
  AC50: 25.4 µM (active)
[15]
  AC50: 4.26 µM (active)
[16]
  IC50: 4.43 µM (active)
[17]
  IC50: > 20 µM (inactive)
[18]
  IC50: 2.22 µM (active)
[19]
  AC50: 5 µM (active)
[20]
  IC50: 9.52 µM (active)
[21]
  EC50: > 20 µM (inactive)
[22]
  AC50: 64.6 µM (active)

## O=C(/C=C/c1ccc(Br)cc1)N1CCN(Cc2cc(F)cc(F)c2)CC1
[23]
  IC50: 0.00221 µM (active)

## CC(=O)Nc1sc2c(c1-c1nc3ccccc3s1)CCN(C)C2
[24]
  IC50: 25.7 µM (inactive)

## COc1ccc(C2C3=C(CCCC3=O)N(CC(=O)O)C3=C2C(=O)CCC3)cc1
[25]
  AC50: 5.91 µM (active)

## Cc1cccc(OCCn2c(=S)[nH]c3ccc(C(F)(F)F)cc32)c1
[26]
  AC50: 35.9 µM (active)
[27]
  AC50: 15.6 µM (active)

## Cc1nc2ccc(CN(C)c3ccc(C(=O)N[C@@H](CCC(=O)O)C(=O)O)s3)cc2c(=O)[nH]1
[28]
  IC50: 0.0023 µM (active)
[29]
  IC50: > 20 µM (inactive)
[30]
  IC50: 0.00424 µM (active)
[31]
  IC50: > 10 µM (inactive)
[32]
  IC50: > 20 µM (inactive)
[33]
  IC50: 0.00288 µM (active)
[34]
  IC50: > 20 µM (inactive)
[35]
  IC50: > 10 µM (inactive)
[36]
  IC50: 0.001 µM (active)
[37]
  IC50: > 20 µM (inactive)

## CC(C)C(=O)Nc1nc(-c2ccc(S(=O)(=O)N3CCOCC3)cc2)cs1
[38]
  IC50: 0.53 µM (active)
[39]
  IC50: 0.614 µM (active)
[40]
  IC50: 0.874 µM (active)
